Several values for one entry are separate records, joined by “and”; a condition that tells them apart may be missing. Equal values may be shown once.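 The compound was tested at five concentrations on cells cultured in 96-well plates, with a 48-hour exposure period. GI50 is the concentration that inhibits growth by half. At the TGI there is no net growth.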
Tests used:
Experiment in all cases: DTP human tumour cell line panel, 48 h
HT29 colon = test system: HT29 colon
BT-549 breast = test system: BT-549 breast
HCT-15 colon = test system: HCT-15 colon
UACC-62 melanoma = test system: UACC-62 melanoma
RPMI-8226 leukemia = test system: RPMI-8226 leukemia
K-562 leukemia = test system: K-562 leukemia
LOX IMVI melanoma = test system: LOX IMVI melanoma
OVCAR-5 ovarian = test system: OVCAR-5 ovarian
SF-539 CNS = test system: SF-539 CNS
SNB-75 CNS = test system: SNB-75 CNS
CCRF-CEM leukemia = test system: CCRF-CEM leukemia
A498 renal = test system: A498 renal
ACHN renal = test system: ACHN renal
SR leukemia = test system: SR leukemia
M14 melanoma = test system: M14 melanoma
A549 NSCLC = test system: A549 NSCLC
SK-MEL-2 melanoma = test system: SK-MEL-2 melanoma
UACC-257 melanoma = test system: UACC-257 melanoma
HCT-116 colon = test system: HCT-116 colon
HOP-62 NSCLC = test system: HOP-62 NSCLC
U251 CNS = test system: U251 CNS
TK-10 renal = test system: TK-10 renal
MALME-3M melanoma = test system: MALME-3M melanoma
UO-31 renal = test system: UO-31 renal
KM12 colon = test system: KM12 colon
SF-268 CNS = test system: SF-268 CNS
NCI-H460 lung = test system: NCI-H460 lung
DU-145 prostate = test system: DU-145 prostate
OVCAR-8 ovarian = test system: OVCAR-8 ovarian
HS 578T breast = test system: HS 578T breast
MOLT-4 leukemia = test system: MOLT-4 leukemia
CAKI-1 renal = test system: CAKI-1 renal
PC-3 prostate = test system: PC-3 prostate
SF-295 CNS = test system: SF-295 CNS
COLO 205 colon = test system: COLO 205 colon
NCI-H23 lung = test system: NCI-H23 lung
MDA-MB-435 = test system: MDA-MB-435
OVCAR-4 ovarian = test system: OVCAR-4 ovarian
MCF7 breast = test system: MCF7 breast
NCI-H226 lung = test system: NCI-H226 lung
HOP-92 NSCLC = test system: HOP-92 NSCLC
SW-620 colon = test system: SW-620 colon
SK-MEL-5 melanoma = test system: SK-MEL-5 melanoma
EKVX NSCLC = test system: EKVX NSCLC
NCI-H522 lung = test system: NCI-H522 lung
SK-MEL-28 melanoma = test system: SK-MEL-28 melanoma
IGROV1 ovarian = test system: IGROV1 ovarian
SNB-19 CNS = test system: SNB-19 CNS
SN12C renal = test system: SN12C renal
T-47D breast = test system: T-47D breast
HCC-2998 colon = test system: HCC-2998 colon
786-0 renal = test system: 786-0 renal
MDA-MB-231 breast = test system: MDA-MB-231 breast
SK-OV-3 ovarian = test system: SK-OV-3 ovarian
RXF 393 renal = test system: RXF 393 renal
OVCAR-3 ovarian = test system: OVCAR-3 ovarian
NCI/ADR-RES ovarian = test system: NCI/ADR-RES ovarian

CN[C@@H](Cc1cccc2ccccc12)C(=O)N[C@@H](CC(C)C)B(O)O
TGI (HT29 colon): 25 nM
TGI (BT-549 breast): 24.3 nM
GI50 (HCT-15 colon): 17.2 nM
TGI (HCT-15 colon): 45.9 nM and 406 nM
GI50 (UACC-62 melanoma): 17 nM
TGI (UACC-62 melanoma): 34.4 nM and < 15.4 nM
GI50 (RPMI-8226 leukemia): 5.47 nM
TGI (RPMI-8226 leukemia): 43.9 nM
GI50 (K-562 leukemia): 22.8 nM
TGI (K-562 leukemia): 95.2 nM
GI50 (LOX IMVI melanoma): 13.5 nM
TGI (LOX IMVI melanoma): 32.4 nM
GI50 (OVCAR-5 ovarian): 18.7 nM
TGI (OVCAR-5 ovarian): 51.8 nM and 20.4 nM
GI50 (SF-539 CNS): 4.73 nM
TGI (SF-539 CNS): 16.7 nM
GI50 (SNB-75 CNS): 22.7 nM
TGI (SNB-75 CNS): 61.7 nM
TGI (CCRF-CEM leukemia): 35.4 nM
GI50 (A498 renal): 5.53 nM
TGI (A498 renal): 45.2 nM
TGI (ACHN renal): > 100000 nM
GI50 (SR leukemia): 16.3 nM
TGI (SR leukemia): 281 nM
TGI (M14 melanoma): 145 nM
GI50 (A549 NSCLC): 46.5 nM
GI50 (SK-MEL-2 melanoma): 23.7 nM
TGI (SK-MEL-2 melanoma): 59.9 nM and 104 nM
GI50 (UACC-257 melanoma): 16.9 nM and 13.1 nM
TGI (UACC-257 melanoma): 33.7 nM and 40 nM
GI50 (HCT-116 colon): 11.8 nM
TGI (HCT-116 colon): 28.5 nM
GI50 (HOP-62 NSCLC): 37.1 nM
TGI (HOP-62 NSCLC): 129 nM and 36.8 nM
GI50 (U251 CNS): 30.3 nM
TGI (U251 CNS): 119 nM and 43.8 nM
GI50 (TK-10 renal): 25.6 nM
TGI (TK-10 renal): 82.1 nM
GI50 (MALME-3M melanoma): 12.1 nM
TGI (MALME-3M melanoma): 33.6 nM and 21.4 nM
GI50 (UO-31 renal): 17.9 nM
TGI (UO-31 renal): 59 nM and < 13.1 nM
GI50 (KM12 colon): 20.3 nM
TGI (KM12 colon): 44.4 nM and 19.3 nM
GI50 (SF-268 CNS): 15.4 nM
TGI (SF-268 CNS): 35.3 nM
GI50 (NCI-H460 lung): 26.6 nM
TGI (NCI-H460 lung): 105 nM and 55.1 nM
GI50 (DU-145 prostate): 51.5 nM
TGI (DU-145 prostate): 219 nM and 315 nM
GI50 (OVCAR-8 ovarian): 25.9 nM
TGI (OVCAR-8 ovarian): 84.4 nM
TGI (HS 578T breast): 57.7 nM
TGI (MOLT-4 leukemia): 46.6 nM
TGI (CAKI-1 renal): 27.2 nM and < 13.1 nM
GI50 (PC-3 prostate): 39.1 nM
TGI (PC-3 prostate): 154 nM and 31 nM
GI50 (SF-295 CNS): 23.1 nM
TGI (SF-295 CNS): 82.8 nM and 15.6 nM
GI50 (COLO 205 colon): 42.7 nM
TGI (COLO 205 colon): 170 nM
GI50 (NCI-H23 lung): 16 nM
TGI (NCI-H23 lung): 38.7 nM and < 11.4 nM
GI50 (MDA-MB-435): 4.25 nM
TGI (MDA-MB-435): 14.7 nM
GI50 (OVCAR-4 ovarian): 23.9 nM
GI50 (MCF7 breast): 6.37 nM
TGI (NCI-H226 lung): 7.22 nM
GI50 (HOP-92 NSCLC): 17.8 nM
TGI (HOP-92 NSCLC): 39.5 nM
GI50 (SW-620 colon): 12 nM
TGI (SW-620 colon): 26 nM
GI50 (SK-MEL-5 melanoma): 24.9 nM
TGI (SK-MEL-5 melanoma): 103 nM and 12.8 nM
GI50 (EKVX NSCLC): 27.7 nM
TGI (EKVX NSCLC): 209 nM and 47.6 nM
TGI (NCI-H522 lung): < 10.3 nM
GI50 (SK-MEL-28 melanoma): 11.9 nM
TGI (SK-MEL-28 melanoma): 27.1 nM
GI50 (IGROV1 ovarian): 18.7 nM
TGI (IGROV1 ovarian): 55.4 nM and 68.1 nM
GI50 (SNB-19 CNS): 35.6 nM
GI50 (SN12C renal): 16.7 nM
TGI (SN12C renal): 72.2 nM and 18.5 nM
GI50 (T-47D breast): 15.6 nM
TGI (T-47D breast): 37.2 nM
GI50 (HCC-2998 colon): 16.2 nM
TGI (HCC-2998 colon): 29.8 nM
GI50 (786-0 renal): 37 nM
TGI (786-0 renal): 180 nM and 67.1 nM
GI50 (MDA-MB-231 breast): 20.1 nM
TGI (MDA-MB-231 breast): 44.6 nM and < 14.5 nM
GI50 (SK-OV-3 ovarian): 94.4 nM
TGI (SK-OV-3 ovarian): > 100000 nM
GI50 (RXF 393 renal): 18 nM
TGI (RXF 393 renal): 35.3 nM
GI50 (OVCAR-3 ovarian): 15.8 nM
TGI (OVCAR-3 ovarian): 37 nM and < 14.7 nM
GI50 (NCI/ADR-RES ovarian): 41.2 nM
TGI (NCI/ADR-RES ovarian): 197 nM

From PubChem BioAssay (NCI)
